We go through 31 compounds from patent US10005774B2, “Syk inhibitors” (Gilead Sciences, Inc., priority 2013, dated 2018).

Molecules are shown by their SMILES.

The first assay concerns the target Syk (Homo sapiens, UniProt P43405). Nature of the assay: High Throughput Syk Biochemical Assay (KinEASE TR-FRET). Particulars: TABLE D, 20 μM ATP, 1 μM biotinylated peptide, 0.015 nM Syk, 30 min at room temperature, read-out: IC50. A digest of the protocol: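 Compounds in DMSO dilution series were tested against Syk, which phosphorylates an XL665-tagged peptide. The phosphoproduct was bound by Eu-labelled phosphotyrosine antibody in a two-step endpoint format.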
A general note: In TR-FRET formats the signal depends on donor and acceptor labels being close together.
As for `C[C@@H](Oc1nc(-c2ccccc2)cc2ncn(C)c12)[C@H]1CNC(=O)C1` [(R)-4-((R)-1-(3-methyl-6-phenyl-3H-imidazo[4,5-c]pyridin-4-yloxy)ethyl)pyrrolidin-2-one], the IC50 stood at 33.8 nM. As for `C[C@@H](Oc1nc(-c2cccc3scnc23)cc2ncn(C)c12)[C@H]1CNC(=O)C1` [(R)-4-((R)-1-(6-(benzo[d]thiazol-4-yl)-3-methyl-3H-imidazo[4,5-c]pyridin-4-yloxy)ethyl)pyrrolidin-2-one], the concentration for half-maximal inhibition (IC50) came to 184 nM.

`C[C@@H](Oc1nc(-c2ccc3scnc3c2)cc2ncn(C)c12)[C@H]1CNC(=O)C1` [(R)-4-((R)-1-((6-(benzo[d]thiazol-5-yl)-3-methyl-3H-imidazo[4,5-c]pyridin-4-yl)oxy)ethyl)pyrrolidin-2-one]: the concentration for half-maximal inhibition (IC50) was 30.6 nM. Regarding `CC(C)n1cc(-c2cc(O[C@H](C)[C@H]3CNC(=O)C3)c3scnc3c2)cn1` (stereo in doubt) [(R)-4-((R)-1-((5-(1-isopropyl-1H-pyrazol-4-yl)benzo[d]thiazol-7-yl)oxy)ethyl)pyrrolidin-2-one], the IC50 turned out to be 0.697 nM. As to `C[C@@H](Oc1cc(-c2ccc(N3CCN(C(=O)OC(C)(C)C)CC3)cc2)cc2ncsc12)[C@H]1CNC(=O)C1` (stereo in doubt) [tert-butyl 4-(4-(7-((R)-1-((R)-5-oxopyrrolidin-3-yl)ethoxy)benzo[d]thiazol-5-yl)phenyl)piperazine-1-carboxylate], the IC50 amounted to 9.04 nM. `C[C@@H](Oc1nc(-c2ccc3c(c2)OC(F)(F)O3)cc2ncn(C)c12)[C@H]1CNC(=O)C1` [(R)-4-((R)-1-(6-(2,2-difluorobenzo[d][1,3]dioxol-5-yl)-3-methyl-3H-imidazo[4,5-c]pyridin-4-yloxy)ethyl)pyrrolidin-2-one]: the half-inhibitory concentration (IC50) is 148 nM.

For the compound `COc1ccc(-c2cc3ncn(C)c3c(O[C@H](C)[C@H]3CNC(=O)C3)n2)nc1OC` [(R)-4-((R)-1-(6-(5,6-dimethoxypyridin-2-yl)-3-methyl-3H-imidazo[4,5-c]pyridin-4-yloxy)ethyl)pyrrolidin-2-one], the IC50 was 34 nM.

Take `Cc1nn(C)c2ccc(-c3cc4ncn(C)c4c(O[C@H](C)[C@H]4CNC(=O)C4)n3)cc12` [(R)-4-((R)-1-((6-(1,3-dimethyl-1H-indazol-5-yl)-3-methyl-3H-imidazo[4,5-c]pyridin-4-yl)oxy)ethyl)pyrrolidin-2-one]: the 50% inhibitory concentration (IC50) turned out to be 10.5 nM. For `C[C@@H](Oc1nc(-c2ccc3cnn(C)c3c2)cc2ncn(C)c12)[C@H]1CNC(=O)C1` [(R)-4-((R)-1-((3-methyl-6-(1-methyl-1H-indazol-6-yl)-3H-imidazo[4,5-c]pyridin-4-yl)oxy)ethyl)pyrrolidin-2-one], the IC50 was determined as 16.8 nM. As to `COc1ccc(-c2cc3ncn(C)c3c(O[C@H](C)[C@H]3CNC(=O)C3)n2)cc1OC` [(R)-4-((R)-1-(6-(3,4-dimethoxyphenyl)-3-methyl-3H-imidazo[4,5-c]pyridin-4-yloxy)ethyl)pyrrolidin-2-one], the IC50 came out at 5.19 nM. `C[C@@H](Oc1nc(-c2ccc3c(c2)N(C)CCO3)cc2ncn(C)c12)[C@H]1CNC(=O)C1` [(R)-4-((R)-1-(3-methyl-6-(4-methyl-3,4-dihydro-2H-benzo[b][1,4]oxazin-6-yl)-3H-imidazo[4,5-c]pyridin-4-yloxy)ethyl)pyrrolidin-2-one]: the IC50 turned out to be 13.5 nM. On to `C[C@@H](Oc1nc(-c2cnc(C(C)(C)C)s2)cc2ncn(C)c12)[C@H]1CNC(=O)C1` [(R)-4-((R)-1-(6-(2-tert-butylthiazol-5-yl)-3-methyl-3H-imidazo[4,5-c]pyridin-4-yloxy)ethyl)pyrrolidin-2-one], for which the 50% inhibitory concentration (IC50) worked out at 9.73 nM. As for `CCn1cnc2cc(-c3ccc(OC)c(OC)c3)nc(O[C@H](C)[C@H]3CNC(=O)C3)c21` [(R)-4-((R)-1-(6-(3,4-dimethoxyphenyl)-3-ethyl-3H-imidazo[4,5-c]pyridin-4-yloxy)ethyl)pyrrolidin-2-one], the IC50 was found to be 3.05 nM. With `C[C@@H](Oc1nc(-c2cc[nH]c(=O)c2)cc2ncn(C)c12)[C@H]1CNC(=O)C1` [4-(3-methyl-4-((R)-1-((R)-5-oxopyrrolidin-3-yl)ethoxy)-3H-imidazo[4,5-c]pyridin-6-yl)pyridin-2(1H)-one], the half-maximal inhibitory concentration (IC50) was determined as 97.5 nM. With `C[C@@H](Oc1nc(-c2ccc(N3CCOCC3)nc2)cc2ncn(C)c12)[C@H]1CNC(=O)C1`, the half-maximal inhibitory concentration (IC50) came to 11.5 nM.

As for `COc1ccc(-c2cc3nc(C)n(C(C)C)c3c(O[C@H](C)[C@H]3CNC(=O)C3)n2)cc1OC` [(R)-4-((R)-1-(6-(3,4-dimethoxyphenyl)-3-isopropyl-2-methyl-3H-imidazo[4,5-c]pyridin-4-yloxy)ethyl)pyrrolidin-2-one], the IC50 came to 317 nM.

Consider `COc1cc(-c2cc(O[C@H](C)[C@H]3CNC(=O)C3)c3ccnn3c2)cc(OC)c1OC` [(R)-4-((R)-1-((6-(3,4,5-trimethoxyphenyl)pyrazolo[1,5-a]pyridin-4-yl)oxy)ethyl)pyrrolidin-2-one], for which the IC50 worked out at 85.1 nM.

Still in this assay, the particulars now being: table 'ALL NEW COMPOUNDS IN 2014', 20 μM ATP, 1 μM biotinylated peptide, 0.015 nM Syk, 30 min at room temperature, read-out: Syk IC50.
In the case of `Cc1cnc(-c2cc(O[C@H](C)[C@H]3CNC(=O)C3)c3c(c2)ncn3C2CC2)s1` [(R)-4-((R)-1-((1-cyclopropyl-5-(5-methylthiazol-2-yl)-1H-benzo[d]imidazol-7-yl)oxy)ethyl)pyrrolidin-2-one], the 50% inhibitory concentration (IC50) came out at 1.73 nM. On to `C[C@@H](Oc1nc(-c2ccnc(C3C=NN=C3)c2)cc2ncn(C3CC3)c12)[C@H]1CNC(=O)C1` [(R)-4-((R)-1-((6-(2-(1H-pyrazol-4-yl)pyridin-4-yl)-3-cyclopropyl-3H-imidazo[4,5-c]pyridin-4-yl)oxy)ethyl)pyrrolidin-2-one], for which the half-inhibitory concentration (IC50) came to 8.44 nM. With `C[C@@H](Oc1cc(-c2ccc(N3CCC(N4CCOCC4)CC3)cn2)cc2ncn(C3CC3)c12)[C@H]1CNC(=O)C1` [(R)-4-((R)-1-((1-cyclopropyl-5-(5-(4-morpholinopiperidin-1-yl)pyridin-2-yl)-1H-benzo[d]imidazol-7-yl)oxy)ethyl)pyrrolidin-2-one], the concentration for half-maximal inhibition (IC50) came out at 6.85 nM.

As for `C[C@@H](Oc1nc(-c2cnc3c(c2)N(C)C(=O)C3(C)C)cc2ncn(C3CC3)c12)[C@H]1CNC(=O)C1` [6-(3-cyclopropyl-4-((R)-1-((R)-5-oxopyrrolidin-3-yl)ethoxy)-3H-imidazo[4,5-c]pyridin-6-yl)-1,3,3-trimethyl-1H-pyrrolo[3,2-b]pyridin-2(3H)-one], the IC50 came to 8.85 nM. With `C[C@@H](Oc1nc(-c2ccc(N3CCN(C4COC4)CC3)c(C#N)c2)cc2ncn(C3CC3)c12)[C@H]1CNC(=O)C1` [5-(3-cyclopropyl-4-((R)-1-((R)-5-oxopyrrolidin-3-yl)ethoxy)-3H-imidazo[4,5-c]pyridin-6-yl)-2-(4-(oxetan-3-yl)piperazin-1-yl)benzonitrile], the IC50 came to 5.21 nM. For `C[C@@H](Oc1nc(-c2ccc(N3CCN(C4COC4)CC3)nc2)cc2ncn(C3CC3)c12)[C@H]1CNC(=O)C1` [(R)-4-((R)-1-((3-cyclopropyl-6-(6-(4-(oxetan-3-yl)piperazin-1-yl)pyridin-3-yl)-3H-imidazo[4,5-c]pyridin-4-yl)oxy)ethyl)pyrrolidin-2-one], the IC50 is 3.63 nM.

Take `CC(C)S(=O)(=O)N1CCN(c2ccc(-c3cc4ncn(C5CC5)c4c(O[C@H](C)[C@H]4CNC(=O)C4)n3)cc2)CC1` [(R)-4-((R)-1-((3-cyclopropyl-6-(4-(4-(isopropylsulfonyl)piperazin-1-yl)phenyl)-3H-imidazo[4,5-c]pyridin-4-yl)oxy)ethyl)pyrrolidin-2-one]: the IC50 turned out to be 1.12 nM. In the case of `C[C@@H](Oc1cc(-c2ccc(N3CC4CC(C3)O4)cn2)cc2ncn(C3CC3)c12)[C@H]1CNC(=O)C1` [(4R)-4-((1R)-1-((5-(5-(6-oxa-3-azabicyclo[3.1.1]heptan-3-yl)pyridin-2-yl)-1-cyclopropyl-1H-benzo[d]imidazol-7-yl)oxy)ethyl)pyrrolidin-2-one], the 50% inhibitory concentration (IC50) stood at 5.57 nM.

As to `C[C@@H](Oc1nc(-c2ccc(C3CCN(C4COC4)CC3)cc2)cc2ncn(C3CC3)c12)[C@H]1CNC(=O)C1` [(R)-4-((R)-1-((3-cyclopropyl-6-(4-(1-(oxetan-3-yl)piperidin-4-yl)phenyl)-3H-imidazo[4,5-c]pyridin-4-yl)oxy)ethyl)pyrrolidin-2-one], the IC50 was 2.31 nM.

`C[C@@H](Oc1nc(-c2ccc3c(c2)NC(=O)OC3(C)C)cc2ncn(C)c12)[C@H]1CNC(=O)C1` [4,4-dimethyl-7-(3-methyl-4-((R)-1-((R)-5-oxopyrrolidin-3-yl)ethoxy)-3H-imidazo[4,5-c]pyridin-6-yl)-1H-benzo[d][1,3]oxazin-2(4H)-one]: the IC50 was determined as 0.935 nM. For `C[C@@H](Oc1nc(-c2ccc3c(c2)OCCO3)cc2ncn(C3CC3)c12)[C@H]1CNC(=O)C1` [(R)-4-((R)-1-((3-cyclopropyl-6-(2,3-dihydrobenzo[b][1,4]dioxin-6-yl)-3H-imidazo[4,5-c]pyridin-4-yl)oxy)ethyl)pyrrolidin-2-one], the concentration for half-maximal inhibition (IC50) came to 5.52 nM. As for `Cc1nn(C)c2ccc(-c3cc4ncn(C5CC5)c4c(O[C@H](C)[C@H]4CNC(=O)C4)n3)cc12` [(R)-4-((R)-1-((3-cyclopropyl-6-(1,3-dimethyl-1H-indazol-5-yl)-3H-imidazo[4,5-c]pyridin-4-yl)oxy)ethyl)pyrrolidin-2-one], the half-inhibitory concentration (IC50) was 3.46 nM. On the same count and under the same terms, under `Cc1ncc(-c2cc3ncn(C4CC4)c3c(O[C@H](C)[C@H]3CNC(=O)C3)n2)s1` [(R)-4-((R)-1-((3-cyclopropyl-6-(2-methylthiazol-5-yl)-3H-imidazo[4,5-c]pyridin-4-yl)oxy)ethyl)pyrrolidin-2-one] stands 10.2 nM. For the compound `C[C@@H](Oc1nc(-c2ccc(N3CCn4c(nnc4C(F)(F)F)C3)cc2)cc2ncn(C3CC3)c12)[C@H]1CNC(=O)C1` [(R)-4-((R)-1-((3-cyclopropyl-6-(4-(3-(trifluoromethyl)-5,6-dihydro-[1,2,4]triazolo[4,3-a]pyrazin-7(8H)-yl)phenyl)-3H-imidazo[4,5-c]pyridin-4-yl)oxy)ethyl)pyrrolidin-2-one], the IC50 stood at 2.17 nM.

A word on the IC50: it is the concentration at which inhibition is half-maximal.
